Laboratory results from PubChem BioAssay AID330 (DTP/NCI, 2004).
Where “and” joins values, the source holds several entries; their conditions need not be identical. Equal values may be shown once. Toxic doses and inconclusive results are not listed. How the source made its calls: active means survival T/C of 150% or more; inactive means T/C below 125% in these data.

System: P388 leukemia ip, CD2F1 mice, survival T/C
Assay: NCI In Vivo Anticancer Drug Screen. Data for tumor model P388 Leukemia (intraperitoneal) in CD2F1 (CDF1) mice
Conditions: endpoint: median survival time, higher = longer survival
Summary of the method: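 Mice carrying the transplanted tumor received test compound or vehicle. Survival was recorded in each group, and the value is the treated-group measurement divided by that of the vehicle-treated control group.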

[1] = dose: 6.25 mg/kg/injection, schedule: Q01DX009 (ip), vehicle: saline with Tween-80
[2] = dose: 12.5 mg/kg/injection, schedule: Q01DX009 (ip), vehicle: saline with Tween-80
[3] = dose: 25.0 mg/kg/injection, schedule: Q01DX009 (ip), vehicle: saline
[4] = dose: 50.0 mg/kg/injection, schedule: Q01DX009 (ip), vehicle: saline
[5] = dose: 25.0 mg/kg/injection, schedule: Q01DX009 (ip), vehicle: saline with Tween-80
[6] = dose: 50.0 mg/kg/injection, schedule: Q01DX009 (ip), vehicle: saline with Tween-80
[7] = dose: 50.0 mg/kg/injection, schedule: Q01DX005 (ip), vehicle: Klucel (hydroxypropylcellulose) (HPC)
[8] = dose: 100.0 mg/kg/injection, schedule: Q01DX005 (ip), vehicle: Klucel (hydroxypropylcellulose) (HPC)
[9] = dose: 50.0 mg/kg/injection, schedule: Q04DX003 (ip), vehicle: saline with Tween-80
[10] = dose: 100.0 mg/kg/injection, schedule: Q04DX003 (ip), vehicle: Klucel (hydroxypropylcellulose) (HPC)
[11] = dose: 200.0 mg/kg/injection, schedule: Q04DX003 (ip), vehicle: Klucel (hydroxypropylcellulose) (HPC)
[12] = dose: 400.0 mg/kg/injection, schedule: Q04DX003 (ip), vehicle: Klucel (hydroxypropylcellulose) (HPC)

Measured: T/C

NC(Cc1ccccc1)C(=O)OCN1C(=O)C2C3C=CC(C2C1=O)C1C(=O)N(COC(=O)C(N)Cc2ccccc2)C(=O)C31 (stereo not given)
inactive: dose: 25.0 mg/kg/injection, schedule: Q01DX009 (ip), vehicle: water 100 % of control | dose: 50.0 mg/kg/injection, schedule: Q01DX009 (ip), vehicle: water 104 % of control | dose: 100.0 mg/kg/injection, schedule: Q01DX009 (ip), vehicle: water 114 % of control | dose: 200.0 mg/kg/injection, schedule: Q01DX009 (ip), vehicle: water 124 % of control

O=[N+]([O-])c1cnc(Sc2ccncn2)c([N+](=O)[O-])c1
inactive: dose: 3.12 mg/kg/injection, schedule: Q01DX009 (ip), vehicle: saline with Tween-80 105 % of control | [1] 98 % of control | [2] 102 % of control | dose: 12.5 mg/kg/injection, schedule: Q01DX009 (ip), vehicle: saline 100 % of control | [3] 89 % of control | [4] 99 % of control

O=C(/C=C/c1ccc(Cl)c(Cl)c1)c1ccc(Cl)cc1
inactive: [2] 100 % of control | [5] 100 % of control | [6] 100 % of control

C=CC12COC(=O)C(=C)C1C1OC(=O)C(=C)C1CC2O (stereo not given)
inactive: dose: 0.75 mg/kg/injection, schedule: Q01DX009 (ip), vehicle: saline 120 % of control | dose: 1.5 mg/kg/injection, schedule: Q01DX009 (ip), vehicle: saline 123 % of control | dose: 3.0 mg/kg/injection, schedule: Q01DX009 (ip), vehicle: saline 118 % of control | dose: 6.0 mg/kg/injection, schedule: Q01DX009 (ip), vehicle: saline 120 % of control

Cc1ccc(/C2=C(\c3ccc(C)cc3)N(c3ccccc3)CCCCN2c2ccccc2)cc1
inactive: dose: 100.0 mg/kg/injection, schedule: Q04DX002 (ip), vehicle: Klucel (hydroxypropylcellulose) (HPC) 99 % of control | dose: 200.0 mg/kg/injection, schedule: Q04DX002 (ip), vehicle: Klucel (hydroxypropylcellulose) (HPC) 99 % of control | dose: 400.0 mg/kg/injection, schedule: Q04DX002 (ip), vehicle: Klucel (hydroxypropylcellulose) (HPC) 99 % of control

COc1ccc(NC(CCN2CCN(CCC(=NC(C)(C)C)Nc3ccc(OC)cc3)CC2)=NC(C)(C)C)cc1
inactive: [5] 97 % of control | [3] 110 % of control | [7] 98 % of control | dose: 50.0 mg/kg/injection, schedule: Q01DX009 (ip), vehicle: Klucel (hydroxypropylcellulose) (HPC) 110 % of control | [6] 97 % of control | [4] 109 % of control | [8] 103 % of control | dose: 100.0 mg/kg/injection, schedule: Q01DX009 (ip), vehicle: Klucel (hydroxypropylcellulose) (HPC) 110 % of control | dose: 100.0 mg/kg/injection, schedule: Q01DX009 (ip), vehicle: saline with Tween-80 107 % of control | dose: 100.0 mg/kg/injection, schedule: Q01DX009 (ip), vehicle: saline 97 % of control | dose: 200.0 mg/kg/injection, schedule: Q01DX009 (ip), vehicle: saline with Tween-80 116 % of control

COC(=O)/C(=C\SC(C)=O)NC(C)=O
inactive: dose: 100.0 mg/kg/injection, schedule: Q04DX002 (ip), vehicle: saline with Tween-80 107 % of control | dose: 200.0 mg/kg/injection, schedule: Q04DX002 (ip), vehicle: saline with Tween-80 105 % of control | dose: 400.0 mg/kg/injection, schedule: Q04DX002 (ip), vehicle: saline with Tween-80 117 % of control

O/C(=C\C(=S)S)c1ccccc1
inactive: dose: 1.56 mg/kg/injection, schedule: Q04DX003 (ip), vehicle: Klucel (hydroxypropylcellulose) (HPC) 96 % of control | dose: 3.12 mg/kg/injection, schedule: Q04DX003 (ip), vehicle: Klucel (hydroxypropylcellulose) (HPC) 96 % of control | dose: 6.25 mg/kg/injection, schedule: Q04DX003 (ip), vehicle: Klucel (hydroxypropylcellulose) (HPC) 97 % of control

CN1NC(c2ccccc2)NN(C)C1=S
inactive: dose: 60.0 mg/kg/injection, schedule: Q01DX005 (ip), vehicle: Klucel (hydroxypropylcellulose) (HPC) 101 % of control | dose: 120.0 mg/kg/injection, schedule: Q01DX005 (ip), vehicle: Klucel (hydroxypropylcellulose) (HPC) 98 % of control | dose: 240.0 mg/kg/injection, schedule: Q01DX005 (ip), vehicle: Klucel (hydroxypropylcellulose) (HPC) 106 % of control

CC1(C)OC2OC(C3CSC(=S=O)S3)C(O)C2O1 (stereo not given)
inactive: dose: 12.5 mg/kg/injection, schedule: Q01DX005 (ip), vehicle: Klucel + Tween-80 95 % of control | dose: 25.0 mg/kg/injection, schedule: Q01DX005 (ip), vehicle: Klucel + Tween-80 100 % of control | dose: 50.0 mg/kg/injection, schedule: Q01DX005 (ip), vehicle: Klucel + Tween-80 103 % of control

CC(C)(C)C(=O)NNc1cccc(Cl)n1
inactive: dose: 50.0 mg/kg/injection, schedule: Q01DX001 (ip), vehicle: Klucel (hydroxypropylcellulose) (HPC) 109 % of control | dose: 100.0 mg/kg/injection, schedule: Q01DX001 (ip), vehicle: Klucel (hydroxypropylcellulose) (HPC) 98 % of control | dose: 200.0 mg/kg/injection, schedule: Q01DX001 (ip), vehicle: Klucel (hydroxypropylcellulose) (HPC) 100 % of control

COC(=O)c1ncn(Cc2ccccc2)c1O (tested in a mixture with another compound)
inactive: dose: 60.0 mg/kg/injection, schedule: Q01DX005 (ip), vehicle: water 93 % of control | dose: 120.0 mg/kg/injection, schedule: Q01DX005 (ip), vehicle: water 107 % of control | dose: 240.0 mg/kg/injection, schedule: Q01DX005 (ip), vehicle: water 110 % of control

Cc1cc2nc(N)[nH]c2cc1C
inactive: [1] 102 % of control | [2] 103 % of control | [5] 105 % of control | [6] 103 % of control

O=[N+]([O-])c1ccc(O)c(/C=N\NS(=O)(=O)c2ccc(F)cc2)c1
inactive: dose: 50.0 mg/kg/injection, schedule: Q01DX005 (ip), vehicle: saline with Tween-80 103 % of control | dose: 100.0 mg/kg/injection, schedule: Q01DX005 (ip), vehicle: saline with Tween-80 93 % of control

COC(=O)C1c2cc3c(c(O)c2C(OC2OC(C)C(OC)C(C)(OC)C2OC)CC1(C)O)C(=O)c1c(O)cc2c(c1C3=O)OC1OC2(C)C(OC(C)=O)C(N(C)C)C1OC(C)=O (stereo not given)
inactive: dose: 3.12 mg/kg/injection, schedule: Q04DX003 (ip), vehicle: other 87 % of control | dose: 6.25 mg/kg/injection, schedule: Q04DX003 (ip), vehicle: other 103 % of control

O=S1(=O)C=C(c2ccccc2)C(c2ccccc2)=C1
inactive: dose: 12.5 mg/kg/injection, schedule: Q04DX003 (ip), vehicle: saline with Tween-80 100 % of control | dose: 25.0 mg/kg/injection, schedule: Q04DX003 (ip), vehicle: saline with Tween-80 100 % of control | [9] 109 % of control

O=C1COCC(=O)OCCOCCSCCOCCO1
inactive: [10] 102 % of control | [11] 102 % of control | [12] 100 % of control

NS(=O)(=O)c1ccc(Nc2c3ccccc3nc3ccccc23)cc1
inactive: [10] 110 % of control and 86 % of control (2×) | dose: 118.0 mg/kg/injection, schedule: Q04DX003 (ip), vehicle: Klucel (hydroxypropylcellulose) (HPC) 93 % of control | [11] 118 % of control and 90 % of control | dose: 236.0 mg/kg/injection, schedule: Q04DX003 (ip), vehicle: Klucel (hydroxypropylcellulose) (HPC) 99 % of control | [12] 120 % of control and 88 % of control and 95 % of control | dose: 472.0 mg/kg/injection, schedule: Q04DX003 (ip), vehicle: Klucel (hydroxypropylcellulose) (HPC) 99 % of control

COc1c(O)ccc(C2=Cc3ccc(O)cc3OC2)c1OC
inactive: dose: 25.0 mg/kg/injection, schedule: Q01DX005 (ip), vehicle: Klucel (hydroxypropylcellulose) (HPC) 99 % of control | [7] 98 % of control | [8] 109 % of control | dose: 200.0 mg/kg/injection, schedule: Q01DX005 (ip), vehicle: Klucel (hydroxypropylcellulose) (HPC) 106 % of control

c1ccc(P2CCc3[nH]c4ccccc4c3C2)cc1 (stereo not given)
inactive: [9] 101 % of control | dose: 100.0 mg/kg/injection, schedule: Q04DX003 (ip), vehicle: saline with Tween-80 105 % of control and 110 % of control | dose: 200.0 mg/kg/injection, schedule: Q04DX003 (ip), vehicle: saline with Tween-80 103 % of control and 120 % of control | dose: 400.0 mg/kg/injection, schedule: Q04DX003 (ip), vehicle: saline with Tween-80 114 % of control

COn1nnc2ccc([N+](=O)[O-])cc21
inactive: dose: 50.0 mg/kg/injection, schedule: Q01DX001 (ip), vehicle: saline with Tween-80 99 % of control | dose: 100.0 mg/kg/injection, schedule: Q01DX001 (ip), vehicle: saline with Tween-80 101 % of control | dose: 200.0 mg/kg/injection, schedule: Q01DX001 (ip), vehicle: saline with Tween-80 92 % of control
